Data published in patent US9932326B2, “Potent and selective inhibitors of hepatitis C virus” (Cocrystal Pharma, LLC, priority 2010, dated 2018).

Key:
Format in all cases: cell-based
[1] = tested on: CEM (human lymphoblastoid) cells; assay: Cellular toxicity assay, CEM cells
Method: (§1) The toxicity of the compounds was assessed in Vero, human PBM, CEM (human lymphoblastoid), MT-2, and HepG2 cells, as described previously (see Schinazi R. F., Sommadossi J.-P., Saalmann V., Cannon D. L., Xie M.-Y., Hart G. C., Smith G. A. & Hahn E. F. Antimicrob. Agents Chemother. 1990, 34, 1061-67). Cycloheximide was included as positive cytotoxic control, and untreated cells exposed to solvent were included as negative controls. The cytotoxicity IC50 was obtained from the concentration-response curve using the median effective method described previously (see Chou T.-C. & Talalay P. Adv. Enzyme Regul. 1984, 22, 27-55; Belen'kii M. S. & Schinazi R. F. Antiviral Res. 1994, 25, 1-11).

[2] = tested on: human PBM cells; assay: Cellular toxicity assay, PBM cells
Method: as §1

[3] = tested on: Vero cells; assay: Cellular toxicity assay, Vero cells
Method: as §1

## COC(=O)N[C@H](C(=O)N1C[C@H](n2cc(-c3ccccc3)nn2)C[C@H]1c1ncc(-c2ccc(-c3ccc(-c4cnc([C@@H]5C[C@@H](n6cc(-c7ccccc7)nn6)CN5C(=O)[C@@H](NC(=O)OC)C(C)C)[nH]4)cc3)cc2)[nH]1)C(C)C
[1]
  Toxicities (μM) CEM: >100 µM
[2]
  Toxicities (μM) PBM: >100 µM
[3]
  Toxicities (μM) VERO: >100 µM

## COC(=O)N[C@H](C(=O)N1C[C@H](n2cc([Si](C)(C)C)nn2)C[C@H]1c1ncc(-c2ccc(-c3ccc(-c4cnc([C@@H]5C[C@@H](n6cc([Si](C)(C)C)nn6)CN5C(=O)[C@@H](NC(=O)OC)C(C)C)[nH]4)cc3)cc2)[nH]1)C(C)C
[1]
  Toxicities (μM) CEM: 25.2 µM
[2]
  Toxicities (μM) PBM: >100 µM
[3]
  Toxicities (μM) VERO: >100 µM

## COC(=O)N[C@H](C(=O)N1C[C@@H](n2cc(COC(C)=O)nn2)C[C@H]1c1ncc(-c2ccc(-c3ccc(-c4cnc([C@@H]5C[C@H](n6cc(COC(C)=O)nn6)CN5C(=O)[C@@H](NC(=O)OC)C(C)C)[nH]4)cc3)cc2)[nH]1)C(C)C
[1]
  Toxicities (μM) CEM: 13.5 µM
[2]
  Toxicities (μM) PBM: 53 µM
[3]
  Toxicities (μM) VERO: ≥100 µM

## COC(=O)N[C@H](C(=O)N1C[C@@H](SC)C[C@H]1c1ncc(-c2ccc(-c3ccc(-c4cnc([C@@H]5C[C@H](SC)CN5C(=O)[C@@H](NC(=O)OC)C(C)C)[nH]4)cc3)cc2)[nH]1)C(C)C
[1]
  Toxicities (μM) CEM: 13.3 µM
[2]
  Toxicities (μM) PBM: 15.6 µM
[3]
  Toxicities (μM) VERO: 10.9 µM

## COC(=O)N[C@H](C(=O)N1C[C@@H](n2cc(C(=O)OC)nn2)C[C@H]1c1ncc(-c2ccc(-c3ccc(-c4cnc([C@@H]5C[C@H](n6cc(C(=O)OC)nn6)CN5C(=O)[C@@H](NC(=O)OC)C(C)C)[nH]4)cc3)cc2)[nH]1)C(C)C
[1]
  Toxicities (μM) CEM: 13.5 µM
[2]
  Toxicities (μM) PBM: 53 µM
[3]
  Toxicities (μM) VERO: ≥100 µM

## COC(=O)N[C@H](C(=O)N1C[C@H](n2ccnn2)C[C@H]1c1ncc(-c2ccc(-c3ccc(-c4cnc([C@@H]5C[C@@H](n6cc([Si](C)(C)C)nn6)CN5C(=O)[C@@H](NC(=O)OC)C(C)C)[nH]4)cc3)cc2)[nH]1)C(C)C
[1]
  Toxicities (μM) CEM: 16.2 µM
[2]
  Toxicities (μM) PBM: 3 µM
[3]
  Toxicities (μM) VERO: >100 µM
